# Experiments:
# secreted APP = test: ELISA for secreted APP in SHSY5Y cells; format: cell-based, human; conditions: 16 hours
# Description: (§1) An enzyme-linked immunosorbent assay was developed to detect secreted APP in SHSY5Y cells, a human neuroblastoma cell line. The purpose of the screen was to discover small molecules that inhibit APP protein synthesis in SHSY5Y cells. SHSY5Y cells were plated at 1×10^5 cells/well in […] of DMEM containing 0.5% heat inactivated FBS in 96 well tissue culture treated plates (Falcon no. 35 3072). 144 MES compounds were tested at final concentrations of […] in 0.1% DMSO. Compounds were added and the plates incubated for 16 hours at 37° C./5% CO2. Maxisorp plates (Nunc no. 437958) were coated overnight with […] capture antibody (Biosource 44-100) diluted in Ca^++ and Mg^++ free PBS. Biosource 44-100 is a mouse mAb that recognizes aa 1-100 of human APP. Plates were blocked for 30 minutes with 1 mg/mL BSA in Ca^++ and Mg^++ free PBS. Plates were washed 3× with wash buffer (Ca^++ and Mg^++ free PBS+0.01% Tween20). […] of supernatants and non-cultured medium controls were transferred from culture plates to ELISA plates. Culture plates were reserved for toxicity analysis. Supernatants were incubated for 4 hours at RT on a plate shaker. After supernatant incubation, plates were washed 3×. Primary antibody (Signet Clone 6E-10 biotin) was added at 0.3125 mg/mL and incubated overnight at 4° C. The recognition site of 6E-10 is aa 1-17 of Ab. For detection, a 1:3000 dilution of horseradish peroxidase conjugated streptavidin (Endogen no. N-100) was incubated for 30 minutes. Plates were washed 3×. Enzyme activity was assessed by incubation with […] TMB substrate solution (Moss no. TMB-US) for 20 minutes. The reaction was stopped by the addition of […] 0.18M sulfuric acid. Optical density was read at 450 nm on Wallac Victor2 plate reader. During the first incubation, toxicity was determined using MTS assay, Cell Titer96 AQ reagent (Promega no. G5430). The background values from the non-cultured medium control were subtracted from the sample values and secreted APP levels and toxicity were expressed as % vehicle control. Of the 144 MES compounds screened, 12 inhibited secreted APP as determined by ELISA. The results are depicted in FIGS. 13A-M.
# (§2) Using the experimental procedure outlined above, APP secretion and toxicity studies were performed on several other non-carbamate compounds, and the results are shown in Tables 3 and 4. The compound structures are provided in Table 2 in the application, which are identified by their MES number.
# SH-SY-5Y Cells = test: MTS toxicity assay in SHSY5Y cells; format: cell-based, human
# Description: as §1, §2
Structure (SMILES),APP Secretion by SH-SY-5Y Cells (secreted APP; Dose 2 uM) [% vehicle control],APP Secretion by SH-SY-5Y Cells (secreted APP; Dose 6 uM) [% vehicle control],APP Secretion by SH-SY-5Y Cells (secreted APP; Dose 20 uM) [% vehicle control],APP Toxicity SH-SY-5Y Cells (MTS assay) (SH-SY-5Y Cells; Dose 2 uM) [% vehicle control],APP Toxicity SH-SY-5Y Cells (MTS assay) (SH-SY-5Y Cells; Dose 6 uM) [% vehicle control],APP Toxicity SH-SY-5Y Cells (MTS assay) (SH-SY-5Y Cells; Dose 20 uM) [% vehicle control],further results
CN1CC[C@]2(C)c3cc(O)ccc3N(C)C12 (stereo partly drawn) [MES 9230],101.25,88.8,4.4,100.8,86.13,13.83,–
COc1ccc2c(c1)[C@]1(C)CCN(Cc3ccccc3)C1N2C (stereo partly drawn) [MES 9231],–,–,–,–,–,–,"APP Secretion by SH-SY-5Y Cells (secreted APP; Dose 2 uM, listed as 9231): 104.9 % vehicle control; APP Secretion by SH-SY-5Y Cells (secreted APP; Dose 6 uM, listed as 9231): 133.5 % vehicle control; APP Secretion by SH-SY-5Y Cells (secreted APP; Dose 20 uM, listed as 9231): 154.2 % vehicle control; APP Toxicity SH-SY-5Y Cells (MTS assay) (SH-SY-5Y Cells; Dose 2 uM, listed as 9231): 95.7 % vehicle control; APP Toxicity SH-SY-5Y Cells (MTS assay) (SH-SY-5Y Cells; Dose 6 uM, listed as 9231): 90.73 % vehicle control; APP Toxicity SH-SY-5Y Cells (MTS assay) (SH-SY-5Y Cells; Dose 20 uM, listed as 9231): 85.87 % vehicle control"
COc1ccc2c(c1)[C@@]1(C)CC[N+](C)(C)C1N2Cc1ccccc1.[I-] (stereo partly drawn) [MES 9234],106.4,96.5,98.8,102.55,99.75,99.3,–
COc1ccc2c(c1)[C@@](C)(CC[N+](C)(C)C)C(O)N2Cc1ccccc1.[I-] (stereo partly drawn) [MES 9236],105.8,103.2,101.65,97.6,101,100.05,–
COc1ccc2c(c1)[C@@]1(C)CCN(Cc3ccccc3)C1N2Cc1ccccc1 (stereo partly drawn) [MES 9237],149.95,158.1,173.3,96.55,98.35,99.4,–
C[C@]12CCN(Cc3ccccc3)C1N(Cc1ccccc1)c1ccc(O)cc12 (stereo partly drawn) [MES 9238],48.57,39.23,23.57,41.8,40.47,31.63,APP Secretion by SH-SY-5Y Cells (secreted APP; Dose 0.08 uM): 117.6 % vehicle control; APP Secretion by SH-SY-5Y Cells (secreted APP; Dose 0.25 uM): 107.7 % vehicle control; APP Secretion by SH-SY-5Y Cells (secreted APP; Dose 0.74 uM): 109.7 % vehicle control; APP Toxicity SH-SY-5Y Cells (MTS assay) (SH-SY-5Y Cells; Dose 0.08 uM): 101.8 % vehicle control; APP Toxicity SH-SY-5Y Cells (MTS assay) (SH-SY-5Y Cells; Dose 0.25 uM): 103.8 % vehicle control; APP Toxicity SH-SY-5Y Cells (MTS assay) (SH-SY-5Y Cells; Dose 0.74 uM): 106.4 % vehicle control
COc1ccc2c(c1)[C@]1(C)CCN(C)C1N2Cc1ccccc1 (stereo partly drawn) [MES 9242],116.75,116.3,116.1,94.2,89.8,80.95,–
COc1ccc2c(c1)[C@]1(C)CCNC1N2 (stereo partly drawn) [MES 9243],88.95,95.25,100.55,99.1,98.4,99,–
C=CCO[C@H](c1ccnc2ccccc12)C1CC2CC[N+]1(Cc1c3ccccc3cc3ccccc13)CC2C=C.[Br-] (stereo partly drawn) [MES 9257],111.2,98.9,99.03,100.5,98.77,100,–
CN(C)Cc1cc2c(cc1O)[C@]1(C)CCN(C)C1N2C (stereo partly drawn) [MES 9266],94.4,95.2,94.85,96.55,97.75,94.15,–
Cc1cc2c(cc1O)[C@]1(C)CCN(C)C1N2C (stereo partly drawn) [MES 9267],93.68,68.64,22.22,97.98,96.72,15.52,APP Secretion by SH-SY-5Y Cells (secreted APP; Dose 0.08 uM): 97.8 % vehicle control; APP Secretion by SH-SY-5Y Cells (secreted APP; Dose 0.25 uM): 97.43 % vehicle control; APP Secretion by SH-SY-5Y Cells (secreted APP; Dose 0.74 uM): 97.43 % vehicle control; APP Toxicity SH-SY-5Y Cells (MTS assay) (SH-SY-5Y Cells; Dose 0.08 uM): 101.5 % vehicle control; APP Toxicity SH-SY-5Y Cells (MTS assay) (SH-SY-5Y Cells; Dose 0.25 uM): 102 % vehicle control; APP Toxicity SH-SY-5Y Cells (MTS assay) (SH-SY-5Y Cells; Dose 0.74 uM): 101.9 % vehicle control
C/N=C(\C)c1cccc(OC)c1 [MES 9270],95.8,95.9,98.15,99.4,101.1,100.4,–
"CNC(C)c1cccc(OC)c1 (stereo not drawn) [MES 9271, 3-Methoxy-(1′-N-methylamino)-ethyl-benzene]",96.1,89.9,63.825,99,99.475,94.1,APP Secretion by SH-SY-5Y Cells (secreted APP; Dose 0.08 uM): 96.6 % vehicle control; APP Secretion by SH-SY-5Y Cells (secreted APP; Dose 0.25 uM): 87.95 % vehicle control; APP Secretion by SH-SY-5Y Cells (secreted APP; Dose 0.74 uM): 92.2 % vehicle control; APP Toxicity SH-SY-5Y Cells (MTS assay) (SH-SY-5Y Cells; Dose 0.08 uM): 103.55 % vehicle control; APP Toxicity SH-SY-5Y Cells (MTS assay) (SH-SY-5Y Cells; Dose 0.25 uM): 103.45 % vehicle control; APP Toxicity SH-SY-5Y Cells (MTS assay) (SH-SY-5Y Cells; Dose 0.74 uM): 103.1 % vehicle control
COc1ccc2c(c1)[C@]1(C)CCN(Cc3ccccc3)C1N2C (stereo partly drawn) [MES 9276],96.15,116.95,133.4,–,–,–,"APP Toxicity SH-SY-5Y Cells (MTS assay) (SH-SY-5Y Cells; Dose 2 uM, listed as 9276): 92.85 % vehicle control; APP Toxicity SH-SY-5Y Cells (MTS assay) (SH-SY-5Y Cells; Dose 6 uM, listed as 9276): 93.5 % vehicle control; APP Toxicity SH-SY-5Y Cells (MTS assay) (SH-SY-5Y Cells; Dose 20 uM, listed as 9276): 90.65 % vehicle control"
COc1ccc2c(c1)[C@]1(C)CCN(Cc3ccccc3)C1N2C=O (stereo partly drawn) [MES 9277],98.25,109,113.6,98.25,98.3,91.1,–
